According to US20260226068A1, “IMIDAZOTRIAZINE IL-17A MODULATORS AND USES THEREOF” (DICE ALPHA, INC., priority 2023, published 2026):

Columns and labels:
IL-17A/A = biological target: T1, IL-17A/A (Homo sapiens, UniProt Q16552); test: IL-17A/A HEK-Blue cell assay (SEAP reporter); assay type: cell-based; conditions: HEK-Blue IL-17A reporter cells, IL17A/A 5 ng/mL, 20 hours, SEAP read at A630; read-out: HEK-Blue IL17AA (IC50 for IL-17A/A inhibition)
T1 construct: purchased Genscript Z03228
T1 sequence (Q16552 24-155): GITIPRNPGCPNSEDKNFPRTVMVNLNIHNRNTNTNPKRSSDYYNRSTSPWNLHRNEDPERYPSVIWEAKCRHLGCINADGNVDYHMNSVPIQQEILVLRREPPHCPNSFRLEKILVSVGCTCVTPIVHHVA

IL-17A/F = biological target: T2, IL-17A/F (Homo sapiens, UniProt Q16552+Q96PD4); test: IL-17A/F HEK-Blue cell assay (SEAP reporter); assay type: cell-based; conditions: HEK-Blue IL-17A reporter cells, IL17A/F 5 ng/mL, 20 hours, SEAP read at A630; read-out: HEK-Blue IL17AF (IC50 for IL-17A/F inhibition)
T2 construct: purchased R&D Systems
T2 sequence (Q16552 24-155): T1 sequence (Q16552 24-155)
T2 sequence (Q96PD4 31-163): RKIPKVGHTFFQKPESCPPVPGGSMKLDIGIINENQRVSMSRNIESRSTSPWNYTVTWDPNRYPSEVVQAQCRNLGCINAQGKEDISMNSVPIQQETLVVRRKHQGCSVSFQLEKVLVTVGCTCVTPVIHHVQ

Question: What does the source list for CCn1nccc1C(=O)N[C@H](c1cn2nc(C[C@H]3C[C@@H](C(F)(F)F)CNC3=O)c(CN3CCOCC3)nc2n1)C(C1CC1)C1CC1 [Compound 406, N—((S)-2,2-dicyclopropyl-1-(3-(morpholinomethyl)-2-(((3R,5R)-2-oxo-5-(trifluoromethyl)piperidin-3-yl)methyl)imidazo[1,2-b][1,2,4]triazin-6-yl)ethyl)-1-ethyl-1H-pyrazole-5-carboxamide]?
Answer: IC50 (IL-17A/A): < 0.1 µM; IC50 (IL-17A/F): 0.1 to 1 µM

Question: How did the IC50 (IL-17A/A) turn out when Cc1nonc1C(=O)N[C@H](c1cn2nc(C[C@H]3C[C@@H](C(F)(F)F)CNC3=O)c(CN3CCOCC3)nc2n1)C1CCC(F)(F)CC1 [Compound 407] was run?
Answer: The IC50 was 0.1 to 1 µM.

Question: What about the IC50 (IL-17A/F) of the same compound?
Answer: The IC50 was greater than 1 µM.

Question: With CCn1nccc1C(=O)N[C@H](c1cn2nc(C[C@H]3C[C@@H](C(F)(F)F)CNC3=O)c(CN3CCOCC3C)nc2n1)[C@H]1CC[C@H](C)CC1 (stereo partly drawn) [Compound 408, 1-ethyl-N-((1S)-((1r,4S)-4-methylcyclohexyl)(3-((3-methylmorpholino)methyl)-2-(((3R,5R)-2-oxo-5-(trifluoromethyl)piperidin-3-yl)methyl)imidazo[1,2-b][1,2,4]triazin-6-yl)methyl)-1H-pyrazole-5-carboxamide] as the compound, how does the IC50 (IL-17A/A) read?
Answer: Its IC50 is less than 0.1 µM.

Question: And the IC50 (IL-17A/F)?
Answer: The IC50 was less than 0.1 µM.

Question: Which IC50 (IL-17A/A) does the source give for CCn1ncnc1C(=O)N[C@H](c1cn2nc(C[C@H]3C[C@@H](C(F)(F)F)CNC3=O)c(C3CCOCC3)nc2n1)C1CCCCC1 [Compound 409] here?
Answer: The IC50 was less than 0.1 µM.

Question: What about the IC50 (IL-17A/F) of the same compound?
Answer: The IC50 was greater than 1 µM.

Question: CCn1ncnc1C(=O)N[C@H](c1cn2nc(C[C@H]3C[C@@H](C(F)(F)F)CNC3=O)c(C3CCOCC3)nc2n1)C1CCCCCC1 [Compound 410] was tested. Which IC50 (IL-17A/A) did it give?
Answer: The IC50 was less than 0.1 µM.

Question: And the IC50 (IL-17A/F)?
Answer: The IC50 was 0.1 to 1 µM.

Question: Which results are given for Cc1nonc1C(=O)N[C@H](c1cn2nc(C[C@H]3C[C@@H](C(F)(F)F)CNC3=O)c(N3CCN(C)C4(CC4)C3)nc2n1)C1CCC(F)(F)CC1 [Compound 411, N—((S)-(4,4-difluorocyclohexyl)(3-(4-methyl-4,7-diazaspiro[2.5]octan-7-yl)-2-(((3R,5R)-2-oxo-5-(trifluoromethyl)piperidin-3-yl)methyl)imidazo[1,2-b][1,2,4]triazin-6-yl)methyl)-4-methyl-1,2,5-oxadiazole-3-carboxamide]?
Answer: IC50 (IL-17A/A): < 0.1 µM; IC50 (IL-17A/F): > 1 µM

Question: Which results are given for CCn1nccc1C(=O)N[C@H](c1cn2nc(C[C@H]3C[C@@H](C(F)(F)F)CNC3=O)c(CN3CCN(C)CC3)nc2n1)C1CCC(F)(F)CC1 [Compound 412, N—((S)-(4,4-difluorocyclohexyl)(3-((4-methylpiperazin-1-yl)methyl)-2-(((3R,5R)-2-oxo-5-(trifluoromethyl)piperidin-3-yl)methyl)imidazo[1,2-b][1,2,4]triazin-6-yl)methyl)-1-ethyl-1H-pyrazole-5-carboxamide]?
Answer: IC50 (IL-17A/A): 0.1 to 1 µM; IC50 (IL-17A/F): > 1 µM

Question: For CCn1nccc1C(=O)N[C@H](c1cn2nc(C[C@H]3C[C@@H](C(F)(F)F)CNC3=O)c(C3CCCN3C)nc2n1)C1CCC(F)(F)CC1 (some centres unmarked) [Compound 413], which IC50 (IL-17A/A) is on record?
Answer: Its IC50 is 0.1 to 1 µM.

Question: And the IC50 (IL-17A/F)?
Answer: The IC50 was greater than 1 µM.

Question: With CC(C)(C)n1nccc1C(=O)N[C@H](c1cn2nc(C[C@H]3C[C@@H](C(F)(F)F)CNC3=O)c(C3CCOCC3)nc2n1)C1CCC(F)(F)CC1 [Compound 414, 1-(tert-butyl)-N—((S)-(4,4-difluorocyclohexyl)(2-(((3R,5R)-2-oxo-5-(trifluoromethyl)piperidin-3-yl)methyl)-3-(tetrahydro-2H-pyran-4-yl)imidazo[1,2-b][1,2,4]triazin-6-yl)methyl)-1H-pyrazole-5-carboxamide] as the compound, how does the IC50 (IL-17A/A) read?
Answer: Its IC50 is less than 0.1 µM.

Question: And the IC50 (IL-17A/F)?
Answer: Its IC50 is greater than 1 µM.

Question: Which IC50 (IL-17A/A) does the source give for CCn1cnnc1C(=O)N[C@H](c1cn2nc(C[C@H]3C[C@@H](C(F)(F)F)CNC3=O)c(C3CCOCC3)nc2n1)C1CCC(F)(F)CC1 [Compound 415] here?
Answer: The IC50 was 0.1 to 1 µM.

Question: What about the IC50 (IL-17A/F) of the same compound?
Answer: Its IC50 is greater than 1 µM.
